In patent US20230140972A1, “GLYCEROL GLUCOSIDE-BASED COMPOUND AND COMPOSITION COMPRISING SAME FOR ULTRAVIOLET LIGHT SHIELD OR ANTI-INFLAMMATION” (ATHENA CO., LTD., priority 2020, published 2023):
Several values for one entry are separate records, joined by “and”; a condition that tells them apart may be missing. Equal entries are not always repeated.

System: RAW264.7 cells
Experiment: Cell viability measurement using MTT assay
Assay type: cell-based, mouse
Settings: vs untreated group
Description: In order to evaluate a cell viability of the glycerol glucoside-based compound sample (EPS-S), an MTT assay was performed.
Specifically, subcultured RAW264.7 cells and HDF cells were aliquoted into a 96-well plate at 1×10^5, respectively, and cultured for 24 hours at 37° C. in an incubator containing 5% carbon dioxide, and then, a culture media was replaced with a serum-free media. Then, each sample was treated onto each cell by concentration. After culturing for 24 hours, an MTT solution was put into each well, reacted for 2 hours under light blocking, a supernatant was removed, a formed formazan was completely dissolved in DMSO, and an absorbance was measured at 540 nm with a microplate reader. In such a case, SDS was used as a positive control group. The test result value was calculated as in Equation 1 below and expressed as the cell viability compared to an untreated group, and was expressed as a mean±standard deviation.

## CCCCCCCCCCCCOS(=O)(=O)[O-].[Na+] [SDS]
24 h, 1 ppm
  cell viability: 99.95% and 99.95 ± 0.72%
24 h, 10 ppm
  cell viability: 96.29% and 96.29 ± 0.16%
24 h, 100 ppm
  cell viability: 7.75% and 7.75 ± 0.14%
24 h, 1,000 ppm
  cell viability: 6.67% and 6.67 ± 0.16%
